Measured values as given in paper PMC12410356 (International Journal for Parasitology: Drugs and Drug …, 2025).

Columns and labels:
[1] = system: E. multilocularis metacestode vesicles; experiment: Phosphoglucose isomerase (PGI) release assay (damage-marker release) on metacestode vesicles; format: cell-based, Echinococcus multilocularis; conditions: 10 μM; for PGI d5 (relative PGI release): 5 days; for PGI d12 (relative PGI release): 12 days
[2] = system: E. multilocularis metacestode vesicles; experiment: Metacestode vesicle viability assay (ATP, CellTiter-Glo); format: cell-based, Echinococcus multilocularis; conditions: 10 μM, 12 days
Procedure: Viability was assessed after 12 days using the same metacestode vesicles as for the PGI release assay. Triton X-100 was added to each well to a final concentration of 0.1 %. Subsequently the metacestode vesicles were broken mechanically and 50 μL of the supernatant was mixed with 50 μL of CellTiter-Glo® buffer (Promega, Dübendorf, Switzerland). Measurements were performed on a HIDEX Sense microplate reader.

[3] = overview screen, singlets, relative to 0.1 % Triton X-100, DMSO subtracted
[4] = overview screen, singlets, relative to DMSO control
[5] = confirmation screen, triplicates, mean

SMILES | PGI d5 (relative PGI release) [1, 3] [%] | PGI d12 (relative PGI release) [1, 3] [%] | Viability d12 (relative viability) [2, 4] [%] | PGI d5 (relative PGI release) [1, 5] [%] | PGI d12 (relative PGI release) [1, 5] [%] | Viability d12 (relative viability) [2, 5] [%]
Nc1cc(-c2nc3ccccc3[nH]2)n[nH]c1=O [MMV975972] | 0.8096 | -4.832 | 175.408 | – | – | –
O=C1C=C(c2ccccc2)S(=O)(=O)c2ccccc21 [MMV1006203] | 0.2239 | 0.7153 | 120.957 | – | – | –
CC(C)Oc1cccc(NC(=O)c2ccccc2C(F)(F)F)c1 [MMV1009286] | -2.405 | -25.3832 | 77.2348 | – | – | –
O=C(c1ccc(F)cc1)N1CCN2C(=O)c3ccccc3C12c1ccccc1 (stereo not drawn) [MMV1165877] | 6.429 | 52.7291 | 23.1723 | 0.55 | 0.41 | 130.42
CC(C)(C)c1ccc(Oc2ccc(N)cc2)cc1 [MMV1174026] | -0.5482 | 16.4911 | 305.195 | – | – | –
CC(C)(C)c1cc(CCC(=O)N2CCC2)cc(C(C)(C)C)c1O [MMV1229204] | -1.987 | -10.8726 | 39.6611 | – | – | –
O=C(NCc1ccccc1Cl)c1cnc2ccccc2n1 [MMV1230557] | -1.462 | -11.048 | 58.5314 | – | – | –
O=C(NCc1ccc2c3c(cccc13)C(=O)N2)c1cccs1 [MMV1341773] | -1.3816 | -12.533 | 18.2024 | – | – | –
COc1c(F)c(F)cc2c(=O)c(C(=O)O)cn(C3CC3)c12 [MMV1480967] | 0.2423 | -3.0894 | 115.193 | – | – | –
COc1ccc(NC(=O)CC2Sc3ncnn3C2=O)cc1 (stereo not drawn) [MMV1483032] | 0.1451 | -11.504 | 68.4676 | – | – | –
O=S(=O)(Nc1ccc(-n2cccc2)cc1)c1ccc(Cl)c(Cl)c1 [MMV1505642] | -0.09064 | -9.692 | 76.9008 | – | – | –
CC1(C)Cc2c(C#N)c(SCCc3ccccc3)nc(N3CCOCC3)c2CO1 [MMV1549626] | -2.265 | -14.2052 | 93.3497 | – | – | –
CC[C@H](NC(=O)[C@H](C)NC)C(=O)N1C[C@@H](O)C[C@H]1Cc1c(-c2[nH]c3cc(F)ccc3c2C[C@@H]2C[C@H](O)CN2C(=O)[C@H](CC)NC(=O)[C@H](C)NC)[nH]c2cc(F)ccc12 [MMV1557856] | -1.122 | -0.1165 | 106.397 | – | – | –
O=C1NC(=O)C(Br)=C1Br [MMV1578554] | 3.162 | 5.51 | 135.147 | – | – | –
O=C(Nc1ccc(F)cc1)c1nn(-c2ccccc2)c(=O)cc1Cl [MMV1578555] | 4.414 | 31.7823 | 71.8821 | – | – | –
C[C@H]1CC[C@@]2(O)C(C)(C)[C@@H]3CC[C@@]2(C)[C@H]1C3 [MMV1578556] | -0.5138 | -7.5984 | 153.384 | – | – | –
Cc1c(N)cccc1Cn1ccc(OCCc2cccs2)cc1=O [MMV1578557] | -0.9531 | -14.0356 | 70.6385 | – | – | –
CCc1oc2ccccc2c1C(=O)c1ccc(O)cc1 [MMV1578558] | -2.405 | 11.8922 | 72.3877 | – | – | –
CO[C@@]1(NC(=O)Cc2cccs2)C(=O)N2C(C(=O)O)=C(COC(N)=O)CS[C@@H]21 [MMV1578559] | -1.349 | -7.289 | 75.9823 | – | – | –
NCC(=O)Nc1ccc(-n2nc(C(F)(F)F)cc2-c2ccc3c(ccc4ccccc43)c2)cc1 [MMV1578560] | 3.295 | 35.9177 | 75.9823 | – | – | –
